Data on 1 compound can be found in ChEMBL document CHEMBL1134574, “Synthesis and characterization of non-steroidal ligands for the glucocorticoid receptor: selective quinoline derivatives with prednisolone-equivalent functional activity” (J Med Chem, 2001).

pIC50, pKi: −log10 of the molar value.

The target in assay [1] is T1, Glucocorticoid receptor (Homo sapiens, UniProt P04150).
T1 sequence (P04150 whole entry): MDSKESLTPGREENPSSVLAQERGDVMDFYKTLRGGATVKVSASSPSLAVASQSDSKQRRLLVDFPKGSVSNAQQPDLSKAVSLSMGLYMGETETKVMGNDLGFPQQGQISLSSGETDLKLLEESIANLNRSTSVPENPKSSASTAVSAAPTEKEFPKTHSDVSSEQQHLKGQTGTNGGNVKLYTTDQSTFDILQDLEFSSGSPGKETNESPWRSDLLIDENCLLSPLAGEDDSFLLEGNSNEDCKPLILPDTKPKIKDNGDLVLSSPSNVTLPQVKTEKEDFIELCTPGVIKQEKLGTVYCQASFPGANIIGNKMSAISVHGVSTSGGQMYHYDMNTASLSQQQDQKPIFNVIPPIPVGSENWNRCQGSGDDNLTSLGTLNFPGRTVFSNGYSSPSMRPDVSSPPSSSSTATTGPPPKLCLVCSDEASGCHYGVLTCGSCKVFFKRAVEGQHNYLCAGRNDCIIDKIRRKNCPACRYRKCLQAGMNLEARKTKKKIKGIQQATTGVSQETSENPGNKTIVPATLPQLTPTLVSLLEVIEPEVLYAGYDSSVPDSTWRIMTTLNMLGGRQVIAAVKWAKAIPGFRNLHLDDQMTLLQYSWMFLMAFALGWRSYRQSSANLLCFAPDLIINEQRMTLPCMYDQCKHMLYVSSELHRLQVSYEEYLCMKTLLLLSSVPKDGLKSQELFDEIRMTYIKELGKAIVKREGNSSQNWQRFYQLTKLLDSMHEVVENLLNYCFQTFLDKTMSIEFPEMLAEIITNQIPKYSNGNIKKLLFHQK
The assay can be described thus: Glucocorticoid-induced aromatase activity in human skin fibroblasts. Format: functional.

For assay [2], the target named is T2, Glucocorticoid receptor (Rattus norvegicus) (UniProt P06536).
T2 sequence (whole entry): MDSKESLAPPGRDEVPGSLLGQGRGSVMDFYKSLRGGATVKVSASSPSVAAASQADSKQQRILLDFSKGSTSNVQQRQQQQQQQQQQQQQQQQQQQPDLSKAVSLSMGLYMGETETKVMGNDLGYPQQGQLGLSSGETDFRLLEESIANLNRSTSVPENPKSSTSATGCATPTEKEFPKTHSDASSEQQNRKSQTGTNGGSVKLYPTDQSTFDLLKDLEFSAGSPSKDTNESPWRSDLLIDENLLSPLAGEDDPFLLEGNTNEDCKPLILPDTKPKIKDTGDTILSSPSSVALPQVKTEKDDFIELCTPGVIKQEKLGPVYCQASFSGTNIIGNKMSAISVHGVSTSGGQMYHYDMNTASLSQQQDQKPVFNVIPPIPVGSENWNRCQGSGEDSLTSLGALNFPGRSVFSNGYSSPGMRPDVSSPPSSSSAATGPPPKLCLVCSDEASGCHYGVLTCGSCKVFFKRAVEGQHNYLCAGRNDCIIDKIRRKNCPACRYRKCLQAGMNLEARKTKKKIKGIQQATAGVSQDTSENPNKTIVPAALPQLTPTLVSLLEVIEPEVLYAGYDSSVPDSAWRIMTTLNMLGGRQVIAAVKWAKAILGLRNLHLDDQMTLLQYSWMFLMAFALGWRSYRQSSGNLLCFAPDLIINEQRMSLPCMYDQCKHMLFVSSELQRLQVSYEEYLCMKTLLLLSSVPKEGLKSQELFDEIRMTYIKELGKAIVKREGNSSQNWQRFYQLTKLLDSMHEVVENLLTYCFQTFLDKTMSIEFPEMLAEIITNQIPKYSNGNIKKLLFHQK
Description: Anti-asthmatic effect as eosinophil influx in rat lung model. In kind it is functional.

A further assay concerns the target T3, Progesterone receptor (Homo sapiens, UniProt P06401).
T3 sequence (P06401 whole entry): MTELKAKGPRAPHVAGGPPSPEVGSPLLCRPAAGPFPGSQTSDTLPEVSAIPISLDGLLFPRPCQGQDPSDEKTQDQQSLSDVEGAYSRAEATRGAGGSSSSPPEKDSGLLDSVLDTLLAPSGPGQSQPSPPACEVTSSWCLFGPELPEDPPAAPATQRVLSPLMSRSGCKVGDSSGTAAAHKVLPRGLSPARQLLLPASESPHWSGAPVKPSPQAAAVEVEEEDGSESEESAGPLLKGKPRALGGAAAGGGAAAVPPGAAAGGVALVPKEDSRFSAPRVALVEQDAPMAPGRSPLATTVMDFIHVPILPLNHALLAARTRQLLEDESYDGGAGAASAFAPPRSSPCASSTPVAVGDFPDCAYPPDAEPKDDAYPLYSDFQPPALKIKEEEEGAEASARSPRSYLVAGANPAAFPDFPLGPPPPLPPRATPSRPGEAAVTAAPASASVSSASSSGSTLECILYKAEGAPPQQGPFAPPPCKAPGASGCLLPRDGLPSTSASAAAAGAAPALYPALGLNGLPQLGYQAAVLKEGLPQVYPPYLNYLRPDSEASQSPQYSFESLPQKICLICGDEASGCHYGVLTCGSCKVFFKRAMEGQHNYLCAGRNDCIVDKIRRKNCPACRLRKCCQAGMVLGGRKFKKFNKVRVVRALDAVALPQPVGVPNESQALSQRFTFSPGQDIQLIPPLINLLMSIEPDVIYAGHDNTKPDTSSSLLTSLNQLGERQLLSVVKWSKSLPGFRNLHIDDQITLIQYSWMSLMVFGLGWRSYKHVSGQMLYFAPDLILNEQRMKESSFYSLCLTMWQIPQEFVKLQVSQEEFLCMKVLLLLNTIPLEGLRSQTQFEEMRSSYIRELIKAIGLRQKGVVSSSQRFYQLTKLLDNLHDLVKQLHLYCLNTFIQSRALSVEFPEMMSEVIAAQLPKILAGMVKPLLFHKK
Description: Binding affinity for progesterone receptor.

Assay [3] concerns the target T1, Glucocorticoid receptor. The assay can be described thus: Transcriptional activation in CV-1 cells expressing glucocorticoid receptor. Format: functional, cell-based.
The target in assay [4] is T1, Glucocorticoid receptor. Description: Binding affinity for glucocorticoid receptor.
For assay [5], the target named is T1, Glucocorticoid receptor. The assay can be described thus: Repression activity of GR ligand with interleukin-6 receptor in native cell assay using Dexamethasone was determined as maximal potency. In kind it is functional.

Consider `COc1cccc2c1-c1ccc3c(c1C(c1cccc(OCSC)c1)O2)C(C)=CC(C)(C)N3` (stereo unspecified), for which the values for the pIC50 against Glucocorticoid receptor [1], at Glucocorticoid receptor [3] and at Glucocorticoid receptor [5] were 6.85, 8.05 and 7.80, respectively. Also, the 50% effect level in assay [2] (ED50) was put at a dose of 2.8 mg/kg. The results for the pKi on Progesterone receptor and on Glucocorticoid receptor [4] were under 5.30 and 8.40, respectively.
